Earlier results on one compound are cited in patent US20080057123A1, “Controlled Release Formulations” (Jagotec AG, priority 2006, published 2008).

Each structure is given as a SMILES string.

Turning to `COC(=O)C1=C(C)NC(C)=C(C(=O)OCC(C)C)C1c1ccccc1[N+](=O)[O-]` (centres unmarked) [Nisoldipine], the solubility in ethanol entry (ethanol) is “soluble”. For the same compound, the solubility in water entry (water) is given as “practically insoluble”.
